The values below come from ChEMBL document CHEMBL1128462, “In vivo and in vitro studies on the neurotoxic potential of 6-hydroxydopamine analogs” (J Med Chem, 1995).

pEC50, pKi: −log10 of the molar value.

In assay [1] the target is Sodium-dependent dopamine transporter (Rattus norvegicus, UniProt P23977). Description: Evaluated for the Competitive inhibition of uptake of dopamine transporter.
For assay [2], the species on record is Mus musculus. Description: Long term depletion of Dopamine(DA) in Whole mouse Brain at a high dose (300 nmol). The assay is classed as functional.
The species named for assay [3] is Mus musculus. Description: Long term depletion of Dopamine(DA) in Whole mouse Brain at a low dose (60 nmol). The assay is classed as functional.
The species named for assay [4] is Mus musculus. Description: Long term depletion of Norepinephrine (NE) in Whole mouse Brain at a high dose (300 nmol). It is filed as functional.
The species named for assay [5] is Mus musculus. In words: Long term depletion of Serotonin(5-HT) in Whole mouse Brain at a high dose (300 nmol). The assay is classed as functional.
For assay [6], the species on record is Rattus norvegicus. In words: Evaluated for the stimulation of synaptosomal release of Dopamine (release constant). The assay is classed as functional.
In assay [7] the target is T1, Norepinephrine transporter (Rattus norvegicus, UniProt Q9WTR4). Description: Evaluated for the Non competitive inhibition of uptake of norepinephrine.
Assay [8] is filed under the species Mus musculus. In words: Long term depletion of Norepinephrine (NE) in Whole mouse Brain at a low dose (60 nmol). The assay is classed as functional.
Assay [9] is filed under the species Mus musculus. In words: Long term depletion of Serotonin(5-HT) in Whole mouse Brain at a low dose (60 nmol). The assay is classed as functional.
The species entered for assay [10] is Rattus norvegicus. Description: Evaluated for the stimulation of synaptosomal release of norepinephrine (release constant). It is filed as functional.
Assay [11] deals with T1, Norepinephrine transporter. In words: Evaluated for the Competitive inhibition of uptake of norepinephrine.
The species entered for assay [12] is Mus musculus. In words: Long term depletion of Serotonin(5-HT) in Whole mouse Brain region of striatum at a high dose (300 nmol). It is filed as functional.
For assay [13], the species on record is Mus musculus. Description: Long term depletion of Dopamine(DA) in Whole mouse Brain region of cortex at a high dose (300 nmol). It is filed as functional.
The species entered for assay [14] is Mus musculus. Description: Long term depletion of Serotonin(5-HT) in Whole mouse Brain region of thalamus at a high dose (300 nmol). It is filed as functional.
The species entered for assay [15] is Mus musculus. In words: Long term depletion of Dopamine(DA) in Whole mouse Brain region of cerebellum at a high dose (300 nmol). The assay is classed as functional.
The species named for assay [16] is Mus musculus. Description: Noradrenergic effect was determined by depletion effect of Serotonin(5-HT) in mouse brain regions expressed as d50. It is filed as functional.
Assay [17] is filed under the species Mus musculus. In words: Noradrenergic effect was determined by depletion effect of Dopamine(DA) in mouse brain regions expressed as d50. It is filed as functional.
Assay [18] is filed under the species Mus musculus. In words: Noradrenergic effect was determined by depletion effect of Serotonin(5-HT) in mouse brain regions expressed as log d50. It is filed as functional, organism-based.
For assay [19], the species on record is Mus musculus. In words: Long term depletion of Serotonin(5-HT) in Whole mouse Brain, region of midbrain at a high dose (300 nmol). It is filed as functional.
For assay [20], the species on record is Mus musculus. Description: Long term depletion of Dopamine(DA) in Whole mouse Brain region of hypothalamus at a high dose (300 nmol). The assay is classed as functional.
The species named for assay [21] is Mus musculus. Description: Long term depletion of Norepinephrine (NE) in Whole mouse Brain region of hippocampus at a high dose (300 nmol). The assay is classed as functional.
The species named for assay [22] is Mus musculus. In words: Long term depletion of Norepinephrine (NE) in Whole mouse Brain region of hypothalamus at a high dose (300 nmol). It is filed as functional.
Assay [23] is filed under the species Mus musculus. In words: Long term depletion of Dopamine(DA) in Whole mouse Brain region of hippocampus at a high dose (300 nmol). The assay is classed as functional.
The species entered for assay [24] is Mus musculus. Description: Long term depletion of Serotonin(5-HT) in Whole mouse Brain region of hypothalamus at a high dose (300 nmol). It is filed as functional.
For assay [25], the species on record is Mus musculus. In words: Long term depletion of Norepinephrine (NE) in Whole mouse Brain region of striatum at a high dose (300 nmol). It is filed as functional.
Assay [26] is filed under the species Mus musculus. In words: Noradrenergic effect was determined by depletion effect of Nerepinephrine (NE) in mouse brain regions expressed as log d50. The assay is classed as functional, organism-based.
Assay [27] is filed under the species Mus musculus. Description: Long term depletion of Serotonin(5-HT) in Whole mouse Brain region of cerebellum at a high dose (300 nmol). It is filed as functional.
Assay [28] is filed under the species Mus musculus. In words: Noradrenergic effect was determined by depletion effect of Dopamine(DA) in mouse brain regions expressed as log d50. It is filed as functional, organism-based.
Assay [29] is filed under the species Mus musculus. Description: Long term depletion of Serotonin(5-HT) in Whole mouse Brain region of medulla-pons at a high dose (300 nmol). It is filed as functional.
Assay [30] is filed under the species Mus musculus. Description: Long term depletion of Dopamine(DA) in Whole mouse Brain region of medulla-pons at a high dose (300 nmol). It is filed as functional.
Assay [31] is filed under the species Mus musculus. In words: Long term depletion of Norepinephrine (NE) in Whole mouse Brain region of medulla-pons at a high dose (300 nmol). It is filed as functional.
The species named for assay [32] is Mus musculus. Description: Long term depletion of Norepinephrine (NE) in Whole mouse Brain region of cerebellum at a high dose (300 nmol). It is filed as functional.
The species entered for assay [33] is Mus musculus. In words: Long term depletion of Dopamine(DA) in Whole mouse Brain, region of midbrain at a high dose (300 nmol). It is filed as functional.
For assay [34], the species on record is Mus musculus. In words: Long term depletion of Norepinephrine (NE) in Whole mouse Brain region of cortex at a high dose (300 nmol). The assay is classed as functional.
For assay [35], the species on record is Mus musculus. Description: Long term depletion of Dopamine(DA) in Whole mouse Brain region of striatum at a high dose (300 nmol). The assay is classed as functional.
Assay [36] is filed under the species Mus musculus. Description: Long term depletion of Serotonin(5-HT) in Whole mouse Brain region of cortex at a high dose (300 nmol). The assay is classed as functional.
Assay [37] is filed under the species Mus musculus. In words: Long term depletion of Serotonin(5-HT) in Whole mouse Brain region of hippocampus at a high dose (300 nmol). The assay is classed as functional.
For assay [38], the species on record is Mus musculus. Description: Long term depletion of Norepinephrine (NE) in Whole mouse Brain region of thalamus at a high dose (300 nmol). It is filed as functional.
The species entered for assay [39] is Mus musculus. Description: Noradrenergic effect was determined by depletion effect of Nerepinephrine (NE) in mouse brain regions expressed as d50. The assay is classed as functional.
The species entered for assay [40] is Mus musculus. Description: Long term depletion of Dopamine(DA) in Whole mouse Brain region of thalamus at a high dose (300 nmol). It is filed as functional.
For assay [41], the species on record is Mus musculus. In words: Long term depletion of Norepinephrine (NE) in Whole mouse Brain, region of midbrain at a high dose (300 nmol). It is filed as functional.

Sequence of Sodium-dependent dopamine transporter (P23977 whole entry): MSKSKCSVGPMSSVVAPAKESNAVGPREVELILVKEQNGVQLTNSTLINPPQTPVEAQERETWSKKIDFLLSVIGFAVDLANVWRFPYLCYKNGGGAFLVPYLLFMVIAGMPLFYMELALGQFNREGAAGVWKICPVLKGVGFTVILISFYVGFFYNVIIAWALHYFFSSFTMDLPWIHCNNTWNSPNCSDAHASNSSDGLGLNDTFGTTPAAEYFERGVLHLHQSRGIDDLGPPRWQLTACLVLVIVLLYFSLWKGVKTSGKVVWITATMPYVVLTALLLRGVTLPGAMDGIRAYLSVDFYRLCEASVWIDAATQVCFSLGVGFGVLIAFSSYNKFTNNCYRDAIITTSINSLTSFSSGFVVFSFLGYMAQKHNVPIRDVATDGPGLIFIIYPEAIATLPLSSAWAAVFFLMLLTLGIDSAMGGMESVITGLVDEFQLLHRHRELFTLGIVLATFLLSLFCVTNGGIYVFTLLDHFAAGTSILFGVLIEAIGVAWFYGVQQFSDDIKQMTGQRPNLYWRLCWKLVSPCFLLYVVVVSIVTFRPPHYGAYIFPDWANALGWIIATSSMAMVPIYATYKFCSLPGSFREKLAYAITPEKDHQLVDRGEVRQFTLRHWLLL
T1 sequence (Q9WTR4 whole entry): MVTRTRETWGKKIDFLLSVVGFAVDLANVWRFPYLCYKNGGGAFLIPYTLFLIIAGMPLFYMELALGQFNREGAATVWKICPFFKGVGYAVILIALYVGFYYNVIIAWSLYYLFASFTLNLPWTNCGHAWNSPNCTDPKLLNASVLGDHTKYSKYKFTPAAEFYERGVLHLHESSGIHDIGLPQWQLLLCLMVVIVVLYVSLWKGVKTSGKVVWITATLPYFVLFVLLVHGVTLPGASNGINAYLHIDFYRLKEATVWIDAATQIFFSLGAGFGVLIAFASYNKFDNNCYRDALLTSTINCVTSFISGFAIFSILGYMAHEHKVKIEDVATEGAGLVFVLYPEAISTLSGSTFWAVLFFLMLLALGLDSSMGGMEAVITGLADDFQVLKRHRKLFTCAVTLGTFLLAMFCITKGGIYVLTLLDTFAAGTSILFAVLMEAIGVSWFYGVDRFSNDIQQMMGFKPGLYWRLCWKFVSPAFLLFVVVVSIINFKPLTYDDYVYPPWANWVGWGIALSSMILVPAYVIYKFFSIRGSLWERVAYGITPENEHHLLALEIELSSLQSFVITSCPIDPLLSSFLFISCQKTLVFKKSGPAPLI

As usually defined, the pKi is the negative decadic logarithm of the Ki, by convention in mol/L. What is called pEC50 is the EC50 on a negative log10 scale, so that one unit is a factor of ten. Take `CC(N)Cc1cc(O)c(N)cc1O` (configuration not stated): the negative-log Ki (pKi) was 8.52 in [1] and 9.00 in assay [7]. For the same compound, the percent of control in [2] is 88%. Also, the Control amounted to 100% in [3]; 40% in assay [4]; 83% in assay [5]; 33% in assay [8]; 79% in assay [9]. In addition, the pEC50 in assay [6] is 5.10; in [10], 4.29.

Consider `CC(N)Cc1cc(O)c(O)cc1O` (configuration not stated), for which the pKi in [1] is 7.80; in [11], 7.59. The Control is given as 87% in assay [3], 25% in assay [8] and 93% in assay [9]. Also, the pEC50 in assay [6] was 4.00; in assay [10], 3.50.

Regarding `NCCc1cc(N)c(O)cc1O`, the pKi in [1] is 7.33; in assay [11] it was 7.89. This compound also returned a percent of control in [2] of 84%. Moreover, the Control in assay [3] was determined as 96%; in assay [4] it was 36%; in assay [5] it was 96%; in assay [8], 40%; in [9] it was 91%. In addition, the pEC50 was 3.98 in assay [6] and 3.67 in [10].

In the case of `CC(N)Cc1cc(N)c(O)cc1O` (configuration not stated), the Control in [12] was 104%; in [13], 57%; in [14], 93%; in [15] it was 63%; in assay [3], 100%; in assay [4] it was 22%. For the same compound, the Control turned out to be 75% in assay [19]; 120% in assay [20]; 6.4% in assay [21]; 83% in [5]; 1.3% in assay [22]; 42% in assay [23]. Further, the Control in assay [24] is recorded as 75%; in assay [25], 7%; in assay [27], 77%; in assay [29] it was 101%; in [30] it was 110%; in assay [8], 26%. Further, the Control in assay [31] is reported as 59%; in [32], 3.4%; in [33], 116%; in assay [34], 8%; in [9], 103%; in assay [35], 71%. In addition, the Control amounted to 78% in assay [36]; 63% in assay [37]; 14% in assay [38]; 154% in [40]; 74% in assay [41]. The pKi in assay [1] is 6.95; in assay [11], 7.34. In addition, the d50 in [16] was 3220 nmol; in [17], 918 nmol; in [39], 21.5 nmol. This compound returned a percent of control in [2] of 74%. For the same compound, the Log d50 turned out to be 3.51 nM in assay [18], 1.33 nM in assay [26] and 2.96 nM in assay [28]. Besides, the pEC50 in assay [6] is 3.42; in assay [10] it was 3.17.
